Laboratory results published in US20110160055A1, “Imidazole and Triazole Compounds as Fungicides” (BASF SE, priority 2008, published 2011).

Columns and labels:
Phakopsora pachyrhizi [1] = test: Example G1: curative activity against soybean rust, greenhouse, sprayed two days after the 24 h incubation; format: in vivo; settings: potted soybean seedlings, 150 ppm aqueous preparation sprayed two days after incubation, rated after a further 10 days; untreated plants 90% infected
Method: (§1) Subsequently, it was made up to 100 ml with water. This stock solution was diluted with the solvent/emulsifier/water mixture described to the active compound concentration indicated below. Alternatively to this, the active compounds were used as a commercially available ready-to-use solution and diluted with water to the active compound concentration indicated. Curative activity against soybean rust caused by Phakopsora pachyrhizi Leaves of potted soybean seedlings were inoculated with a spore suspension of soybean rust (Phakpsora pachyrhizi). […] During this time, the spores germinated and the germ tubes penetrated into the leaf tissue. Infected plants were then cultivated further in a greenhouse at temperatures between 23 and 27° C. and 60 to 80% relative atmospheric humidity. After two days, the plants were sprayed to run off point with the active compound solution described above at the active compound concentration stated below. After the spray coating had dried on, the test plants were cultivated in a greenhouse at temperatures between 23 and 27° C. and 60 to 80% relative atmospheric humidity for a further 10 days. The extent of the rust fungus development on the leaves was then determined visually in % infection.

Phakopsora pachyrhizi [2] = test: Example G2: curative activity against soybean rust, greenhouse, sprayed directly after the 24 h incubation; format: in vivo; settings: potted soybean seedlings, 150 ppm aqueous preparation sprayed after 24 h incubation, rated after a further 14 days; untreated plants 90% infected
Method: as §1, with “then” for “then cultivated further in a greenhouse at temperatures between 23 and 27° C. and 60 to 80% relative atmospheric humidity. After two days, the plants were”, “further 14” for “further 10”

SMILES | infection (extent of rust fungus development on the leaves, visual) (Phakopsora pachyrhizi [1]) | infection (extent of rust fungus development on the leaves, visual) (Phakopsora pachyrhizi [2])
CC(COc1ccccc1Cl)=C(C)CC(C(O)C(C)(C)C)n1cncn1 (centres unmarked) [I.A6b] | 0% | –
CC(COc1cccc(Cl)c1Cl)=C(C)CC(C(O)C(C)(C)C)n1cncn1 (centres unmarked) [I.A14a] | – | 0%
